In article PMC11527692, “Tailored biosynthesis of diosmin through reconstitution of the flavonoid pathway in Nicotiana benthamiana” (Frontiers in Plant Science, 2024):

Assays:
Cs1,6RhaT = target: T1, Cs1,6RhaT (Citrus sinensis, UniProt A7ISD3); assay: substrate feeding of E. coli expressing the GST fusion, UPLC-DAD-QToF/MS of product; assay type: cell-based; conditions: product diosmin; 100 μM substrate, 28 °C, 3 h; whole culture
T1 sequence (A7ISD3 1-475): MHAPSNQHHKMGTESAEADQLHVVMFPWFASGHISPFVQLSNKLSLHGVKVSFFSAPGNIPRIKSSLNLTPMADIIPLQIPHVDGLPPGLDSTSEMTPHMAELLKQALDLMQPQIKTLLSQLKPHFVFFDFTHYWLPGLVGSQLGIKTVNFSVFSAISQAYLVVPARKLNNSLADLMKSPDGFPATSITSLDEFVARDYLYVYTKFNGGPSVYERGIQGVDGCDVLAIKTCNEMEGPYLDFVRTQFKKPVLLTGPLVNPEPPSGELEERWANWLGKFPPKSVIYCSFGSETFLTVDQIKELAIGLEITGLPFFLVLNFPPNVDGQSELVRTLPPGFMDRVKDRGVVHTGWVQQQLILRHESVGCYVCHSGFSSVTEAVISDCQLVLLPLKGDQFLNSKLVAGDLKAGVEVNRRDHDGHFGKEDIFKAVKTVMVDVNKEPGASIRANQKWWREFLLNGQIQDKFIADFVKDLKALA

PaF4′OMT = target: T2, PaF4′OMT (Plagiochasma appendiculatum, UniProt A0A1X9Y2Y6); assay: substrate feeding of E. coli expressing the GST fusion, HPLC of product; assay type: cell-based; conditions: product diosmetin; 100 μM substrate (methods name diosmetin, results name luteolin), 28 °C, 3 h; whole culture
T2 sequence (A0A1X9Y2Y6 1-391): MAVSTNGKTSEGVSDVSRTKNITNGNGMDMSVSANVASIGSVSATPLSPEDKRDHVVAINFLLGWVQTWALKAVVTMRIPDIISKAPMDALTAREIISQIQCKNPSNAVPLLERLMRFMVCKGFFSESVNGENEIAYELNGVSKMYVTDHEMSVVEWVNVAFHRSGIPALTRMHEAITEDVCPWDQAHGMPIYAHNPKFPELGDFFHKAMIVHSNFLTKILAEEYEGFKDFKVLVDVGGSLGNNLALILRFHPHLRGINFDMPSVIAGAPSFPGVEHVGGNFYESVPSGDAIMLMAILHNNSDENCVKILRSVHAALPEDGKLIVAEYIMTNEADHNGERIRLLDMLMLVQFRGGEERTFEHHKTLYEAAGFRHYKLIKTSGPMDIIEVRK

Structure (SMILES)	substrate feeding of E. coli expressing the GST fusion, UPLC-DAD-QToF/MS of prod (Cs1,6RhaT)	substrate feeding of E. coli expressing the GST fusion, HPLC of product (PaF4′OMT)
COc1ccc(-c2cc(=O)c3c(O)cc(O[C@@H]4O[C@H](CO)[C@@H](O)[C@H](O)[C@H]4O)cc3o2)cc1O [diosmetin 7-O-β-D-glucopyranoside]	the cells expressing Cs1,6RhaT produced the most diosmin	
O=c1cc(-c2ccc(O)c(O)c2)oc2cc(O)cc(O)c12 [luteolin]		PaF4′OMT produced the most diosmetin from luteolin
